Laboratory results published in patent publication US20240182603A1, “SULFUR-S[…] TO STABILIZE OLIGOSACCHARIDE” (Brandeis University, priority 2021, published 2024).

System: HIV broadly neutralizing antibody 2G12
Experiment: STD-NMR (Saturation Transfer Difference NMR) binding analysis with 2G12 IgG
Conditions: for mannose unit showing greatest saturation transfer (STD): pH 6.7 deuterated phosphate buffered saline, saturation time 3 s; for recognition by neutralizing HIV antibody 2G12: summary in Discussion, contacts similar to natural oligomannose
Protocol: With these S-Man3 and S-Man4 derivatives in hand, their recognition by HIV broadly neutralizing antibody 2G12 was studied. 2G12 binds primarily to the linear trimannose (D1) arm of Man9GlcNAc2. […] The temperature was 298 K for S-Man3 14 and 293 K for S-Man4 21 in order to move the HDO peak to avoid covering an anomeric resonance. The experiments were performed without suppression of the residual HDO signal. On-resonance frequencies of 0.86 ppm δ (protein aliphatic) and 7 ppm δ (protein aromatic) were applied for S-Man3 14 and […] S-Man4 21, respectively, in both cases with a saturation time of 3 s and an off-resonance frequency of 40 ppm δ.
In the case of the Man4 derivative, negligible STD is observed for the reducing-terminal mannose unit.

[1] = 25 μM 2G12 IgG, 200:1 sugar:antibody

Structure (SMILES) | mannose unit showing greatest saturation transfer (STD) [1] | recognition by neutralizing HIV antibody 2G12 | STD observed for the reducing-terminal mannose unit (25 μM 2G12 IgG, 200:1 sugar:antibody, 293 K)
NCCO[C@H]1O[C@H](CO)[C@@H](O)[C@H](O)[C@@H]1S[C@H]1O[C@H](CO)[C@@H](O)[C@H](O)[C@@H]1O[C@H]1O[C@H](CO)[C@@H](O)[C@H](O)[C@@H]1O [compound 14, 2-aminoethyl-[α-D-mannopyranosyl-(1→2)-2-S-{α-D-mannopyranosyl-(1→2)}]-α-D-mannopyranoside] | greatest saturation transfer is seen for the non-reducing mannose unit | recognized | –
[N-]=[N+]=NC1CCC(O[C@@H]2OC(CO)[C@@H](O)[C@H](O[C@H]3OC(CO)[C@@H](O)[C@H](O)C3O[C@H]3OC(CO)[C@@H](O)[C@H](O)C3S[C@H]3OC(CO)[C@@H](O)[C@H](O)C3O)C2O)CC1 (stereo partly drawn) [compound 21, Trans-azidocyclohexyl-3-O-[{α-D-mannopyranosyl-(1→2)}-2-O-{α-D-mannopyranosyl-(1→2)}-2-S-{α-D-mannopyranosyl-(1→2)}]-β-D-mannopyranoside] | greatest saturation transfer is seen for the non-reducing mannose unit | recognized | negligible
